Experimental data reported in ChEMBL document CHEMBL5653615 (J Biol Chem, 2013).

Assays:
[1] = biological target: Cyclin-dependent kinase 1/cyclin B1 (Homo sapiens) (UniProt P06493+P14635); assay: Inhibition of human CDK1/cyclin B at 1.82 nM by HotSpot assay relative to control; format: protein-complex assay
[2] = biological target: Casein kinase I isoform alpha (Homo sapiens) (UniProt P48729); assay: Inhibition of human CK1a1 at 1.82 nM by HotSpot assay relative to control
[3] = biological target: Casein kinase II subunit alpha' (Homo sapiens) (UniProt P19784); assay: Inhibition of human CK2a2 at 1.82 nM by HotSpot assay relative to control
Chain of Casein kinase II subunit alpha' (Homo sapiens) (P19784 whole entry, looked up): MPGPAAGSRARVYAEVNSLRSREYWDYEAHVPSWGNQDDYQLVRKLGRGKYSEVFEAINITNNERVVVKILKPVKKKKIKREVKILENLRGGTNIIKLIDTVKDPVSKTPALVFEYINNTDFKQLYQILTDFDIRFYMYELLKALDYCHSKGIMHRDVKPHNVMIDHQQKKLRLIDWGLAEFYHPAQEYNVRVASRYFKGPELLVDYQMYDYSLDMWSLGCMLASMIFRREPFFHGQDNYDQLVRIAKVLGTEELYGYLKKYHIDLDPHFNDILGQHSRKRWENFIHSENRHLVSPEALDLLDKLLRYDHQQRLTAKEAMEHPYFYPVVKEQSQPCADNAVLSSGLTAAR

[4] = biological target: Receptor tyrosine-protein kinase erbB-2 (Homo sapiens) (UniProt P04626); assay: Inhibition of human ERBB2 at 1.82 nM by HotSpot assay relative to control
Chain of Receptor tyrosine-protein kinase erbB-2 (Homo sapiens) (P04626 whole entry): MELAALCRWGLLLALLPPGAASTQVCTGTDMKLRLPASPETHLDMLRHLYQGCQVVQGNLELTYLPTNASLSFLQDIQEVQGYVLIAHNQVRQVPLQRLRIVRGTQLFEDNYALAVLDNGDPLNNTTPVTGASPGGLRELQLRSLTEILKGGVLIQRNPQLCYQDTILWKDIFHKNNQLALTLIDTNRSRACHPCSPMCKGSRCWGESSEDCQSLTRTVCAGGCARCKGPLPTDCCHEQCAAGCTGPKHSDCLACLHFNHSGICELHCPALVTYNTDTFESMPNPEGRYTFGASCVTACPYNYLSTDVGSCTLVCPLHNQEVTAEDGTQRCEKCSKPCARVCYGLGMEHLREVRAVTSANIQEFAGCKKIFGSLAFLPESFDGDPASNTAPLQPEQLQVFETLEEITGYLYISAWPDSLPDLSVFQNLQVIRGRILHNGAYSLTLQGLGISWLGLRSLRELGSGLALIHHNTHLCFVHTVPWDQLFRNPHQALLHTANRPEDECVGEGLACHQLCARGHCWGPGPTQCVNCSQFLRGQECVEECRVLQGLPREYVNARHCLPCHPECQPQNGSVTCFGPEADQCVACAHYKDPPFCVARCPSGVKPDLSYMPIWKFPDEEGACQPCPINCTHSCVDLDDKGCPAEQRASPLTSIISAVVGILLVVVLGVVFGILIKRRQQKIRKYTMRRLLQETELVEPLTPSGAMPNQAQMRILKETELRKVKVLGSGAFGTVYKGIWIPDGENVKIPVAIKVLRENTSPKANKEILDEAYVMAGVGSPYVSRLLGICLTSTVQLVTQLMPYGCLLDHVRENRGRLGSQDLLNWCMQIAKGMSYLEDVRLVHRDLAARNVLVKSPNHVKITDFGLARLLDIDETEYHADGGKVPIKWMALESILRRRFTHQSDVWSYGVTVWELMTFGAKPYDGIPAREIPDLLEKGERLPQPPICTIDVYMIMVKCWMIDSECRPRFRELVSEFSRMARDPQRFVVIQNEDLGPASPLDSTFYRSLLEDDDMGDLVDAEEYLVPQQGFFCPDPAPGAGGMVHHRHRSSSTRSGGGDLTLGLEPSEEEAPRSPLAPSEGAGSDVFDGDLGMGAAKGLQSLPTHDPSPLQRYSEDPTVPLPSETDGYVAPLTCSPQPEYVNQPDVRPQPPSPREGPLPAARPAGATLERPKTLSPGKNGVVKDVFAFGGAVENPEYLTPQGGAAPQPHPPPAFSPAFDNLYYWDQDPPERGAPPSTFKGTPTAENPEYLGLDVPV

[5] = biological target: T1, Protein kinase C epsilon type (Homo sapiens) (UniProt Q02156); assay: Inhibition of human PKCepsilon at 1.82 nM by HotSpot assay relative to control
T1 sequence (whole entry): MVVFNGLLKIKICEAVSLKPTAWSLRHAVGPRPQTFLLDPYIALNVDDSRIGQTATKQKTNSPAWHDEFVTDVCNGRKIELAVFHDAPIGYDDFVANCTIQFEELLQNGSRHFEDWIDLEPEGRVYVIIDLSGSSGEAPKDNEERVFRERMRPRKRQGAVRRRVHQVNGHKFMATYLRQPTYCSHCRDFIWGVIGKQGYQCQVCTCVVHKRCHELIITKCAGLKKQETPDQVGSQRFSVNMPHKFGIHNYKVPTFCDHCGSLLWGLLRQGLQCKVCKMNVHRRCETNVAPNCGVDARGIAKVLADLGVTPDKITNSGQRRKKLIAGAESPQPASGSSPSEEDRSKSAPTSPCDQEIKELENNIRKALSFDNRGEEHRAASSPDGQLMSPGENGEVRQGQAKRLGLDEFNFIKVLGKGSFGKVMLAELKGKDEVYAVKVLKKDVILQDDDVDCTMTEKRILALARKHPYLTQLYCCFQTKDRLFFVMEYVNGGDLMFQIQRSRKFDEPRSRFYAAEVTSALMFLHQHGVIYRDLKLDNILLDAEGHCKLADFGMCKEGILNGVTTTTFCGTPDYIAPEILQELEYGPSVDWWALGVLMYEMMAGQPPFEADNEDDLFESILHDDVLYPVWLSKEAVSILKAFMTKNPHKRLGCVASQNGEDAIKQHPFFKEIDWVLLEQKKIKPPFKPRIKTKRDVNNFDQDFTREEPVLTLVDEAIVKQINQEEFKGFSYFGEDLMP

[6] = biological target: Hepatocyte growth factor receptor (Homo sapiens) (UniProt P08581); assay: Inhibition of human c-MET at 18.6 nM by HotSpot assay relative to control
[7] = biological target: Mitogen-activated protein kinase kinase kinase 8 (Homo sapiens) (UniProt P41279); assay: Inhibition of human COT1 at 18.6 nM by HotSpot assay relative to control
Chain of Mitogen-activated protein kinase kinase kinase 8 (Homo sapiens) (P41279 whole entry): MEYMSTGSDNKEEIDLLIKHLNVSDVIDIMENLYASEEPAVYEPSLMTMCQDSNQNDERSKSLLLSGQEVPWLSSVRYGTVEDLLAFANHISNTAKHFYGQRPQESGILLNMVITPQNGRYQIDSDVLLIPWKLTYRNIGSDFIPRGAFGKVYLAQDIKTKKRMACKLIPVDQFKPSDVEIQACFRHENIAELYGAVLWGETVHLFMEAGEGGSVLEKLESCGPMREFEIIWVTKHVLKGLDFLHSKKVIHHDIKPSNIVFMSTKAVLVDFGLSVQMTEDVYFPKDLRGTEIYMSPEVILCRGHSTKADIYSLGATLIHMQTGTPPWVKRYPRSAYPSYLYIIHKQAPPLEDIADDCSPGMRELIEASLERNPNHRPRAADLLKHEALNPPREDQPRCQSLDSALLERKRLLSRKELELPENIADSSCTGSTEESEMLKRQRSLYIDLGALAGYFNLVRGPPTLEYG

[8] = biological target: T2, Ephrin type-B receptor 1 (Homo sapiens) (UniProt P54762); assay: Inhibition of human EPHB1 at 18.6 nM by HotSpot assay relative to control
T2 sequence (whole entry): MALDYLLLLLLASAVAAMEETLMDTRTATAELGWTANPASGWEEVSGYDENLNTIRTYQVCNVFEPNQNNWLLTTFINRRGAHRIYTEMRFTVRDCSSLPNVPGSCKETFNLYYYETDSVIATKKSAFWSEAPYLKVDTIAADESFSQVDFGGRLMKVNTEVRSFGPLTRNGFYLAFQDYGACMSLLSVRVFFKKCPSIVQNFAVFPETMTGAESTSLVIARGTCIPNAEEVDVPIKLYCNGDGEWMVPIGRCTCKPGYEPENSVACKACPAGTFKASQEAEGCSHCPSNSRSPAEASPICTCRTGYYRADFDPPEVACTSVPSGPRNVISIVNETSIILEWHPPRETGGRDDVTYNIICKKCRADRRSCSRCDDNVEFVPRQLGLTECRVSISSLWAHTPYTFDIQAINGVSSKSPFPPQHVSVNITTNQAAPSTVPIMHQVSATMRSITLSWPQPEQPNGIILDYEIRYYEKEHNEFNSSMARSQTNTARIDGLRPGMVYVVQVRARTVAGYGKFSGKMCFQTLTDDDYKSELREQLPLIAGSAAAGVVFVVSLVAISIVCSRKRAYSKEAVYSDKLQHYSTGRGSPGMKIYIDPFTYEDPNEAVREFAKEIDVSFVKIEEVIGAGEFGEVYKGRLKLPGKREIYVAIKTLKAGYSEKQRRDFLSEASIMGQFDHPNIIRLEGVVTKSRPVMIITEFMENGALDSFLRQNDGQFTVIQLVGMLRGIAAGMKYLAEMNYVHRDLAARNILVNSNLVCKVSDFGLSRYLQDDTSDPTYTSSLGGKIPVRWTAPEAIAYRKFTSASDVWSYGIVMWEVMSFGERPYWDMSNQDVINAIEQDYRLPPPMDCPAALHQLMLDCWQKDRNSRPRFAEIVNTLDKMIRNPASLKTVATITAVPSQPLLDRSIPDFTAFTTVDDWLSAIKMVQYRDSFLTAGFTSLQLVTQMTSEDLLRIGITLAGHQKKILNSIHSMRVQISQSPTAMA

[9] = biological target: Proto-oncogene tyrosine-protein kinase receptor Ret (Homo sapiens) (UniProt P07949); assay: Inhibition of human RET at 18.6 nM by HotSpot assay relative to control
Chain of Proto-oncogene tyrosine-protein kinase receptor Ret (Homo sapiens) (P07949 whole entry): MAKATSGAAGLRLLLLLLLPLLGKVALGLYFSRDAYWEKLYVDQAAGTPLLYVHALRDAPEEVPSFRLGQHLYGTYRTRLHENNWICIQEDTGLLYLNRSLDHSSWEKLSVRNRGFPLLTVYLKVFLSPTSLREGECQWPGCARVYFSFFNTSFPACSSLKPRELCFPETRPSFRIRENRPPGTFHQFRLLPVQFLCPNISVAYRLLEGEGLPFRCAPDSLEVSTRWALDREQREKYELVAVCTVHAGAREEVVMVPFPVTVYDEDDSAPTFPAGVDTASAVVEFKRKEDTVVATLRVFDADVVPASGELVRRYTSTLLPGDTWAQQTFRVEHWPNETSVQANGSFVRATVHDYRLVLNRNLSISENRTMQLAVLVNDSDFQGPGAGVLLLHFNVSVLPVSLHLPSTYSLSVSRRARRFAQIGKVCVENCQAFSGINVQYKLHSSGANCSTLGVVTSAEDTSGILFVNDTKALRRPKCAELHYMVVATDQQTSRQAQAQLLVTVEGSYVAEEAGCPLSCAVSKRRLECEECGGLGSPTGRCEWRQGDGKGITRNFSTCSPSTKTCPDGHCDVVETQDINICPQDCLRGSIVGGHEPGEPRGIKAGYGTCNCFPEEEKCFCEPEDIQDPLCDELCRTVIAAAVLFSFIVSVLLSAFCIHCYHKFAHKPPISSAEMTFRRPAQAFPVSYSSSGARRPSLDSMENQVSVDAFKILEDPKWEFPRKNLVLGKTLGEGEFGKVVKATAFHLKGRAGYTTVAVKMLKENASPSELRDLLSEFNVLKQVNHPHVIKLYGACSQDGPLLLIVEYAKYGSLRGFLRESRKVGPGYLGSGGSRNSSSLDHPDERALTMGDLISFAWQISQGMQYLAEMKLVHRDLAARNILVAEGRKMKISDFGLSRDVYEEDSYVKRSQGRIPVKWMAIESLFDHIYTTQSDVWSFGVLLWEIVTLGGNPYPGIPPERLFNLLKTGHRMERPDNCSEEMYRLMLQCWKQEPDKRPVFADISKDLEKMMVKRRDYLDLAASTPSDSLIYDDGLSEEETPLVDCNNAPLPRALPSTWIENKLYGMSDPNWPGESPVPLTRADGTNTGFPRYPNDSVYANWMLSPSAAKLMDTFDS

[10] = biological target: T3, Tyrosine-protein kinase TXK (Homo sapiens) (UniProt P42681); assay: Inhibition of human TXK at 18.6 nM by HotSpot assay relative to control
T3 sequence (whole entry): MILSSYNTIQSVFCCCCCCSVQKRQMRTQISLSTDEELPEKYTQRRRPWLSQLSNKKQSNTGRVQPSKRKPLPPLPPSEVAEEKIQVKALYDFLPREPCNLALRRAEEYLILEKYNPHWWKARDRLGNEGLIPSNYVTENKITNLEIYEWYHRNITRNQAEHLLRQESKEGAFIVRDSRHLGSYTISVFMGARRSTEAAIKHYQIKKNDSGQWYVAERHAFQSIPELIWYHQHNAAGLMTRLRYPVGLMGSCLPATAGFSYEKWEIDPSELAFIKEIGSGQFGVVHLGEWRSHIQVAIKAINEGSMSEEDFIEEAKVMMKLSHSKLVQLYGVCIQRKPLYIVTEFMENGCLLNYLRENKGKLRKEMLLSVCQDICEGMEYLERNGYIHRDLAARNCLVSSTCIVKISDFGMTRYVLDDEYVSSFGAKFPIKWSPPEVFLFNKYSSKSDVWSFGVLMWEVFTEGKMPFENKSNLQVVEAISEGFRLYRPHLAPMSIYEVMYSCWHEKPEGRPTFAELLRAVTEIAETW

Chain of Casein kinase I isoform alpha (Homo sapiens) (P48729 2-337 limits assumed): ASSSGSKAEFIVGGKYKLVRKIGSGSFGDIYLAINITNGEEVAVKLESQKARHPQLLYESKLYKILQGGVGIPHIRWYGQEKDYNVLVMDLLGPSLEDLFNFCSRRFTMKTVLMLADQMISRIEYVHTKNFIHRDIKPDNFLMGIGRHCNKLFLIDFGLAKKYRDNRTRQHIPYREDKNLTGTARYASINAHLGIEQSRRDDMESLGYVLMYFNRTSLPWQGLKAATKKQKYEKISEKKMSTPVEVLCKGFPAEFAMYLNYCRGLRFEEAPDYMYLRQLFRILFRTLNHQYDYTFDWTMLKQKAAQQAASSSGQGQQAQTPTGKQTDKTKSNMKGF
Chain of Cyclin-dependent kinase 1/cyclin B1 (Homo sapiens) (P06493 whole entry, looked up, canonical isoform): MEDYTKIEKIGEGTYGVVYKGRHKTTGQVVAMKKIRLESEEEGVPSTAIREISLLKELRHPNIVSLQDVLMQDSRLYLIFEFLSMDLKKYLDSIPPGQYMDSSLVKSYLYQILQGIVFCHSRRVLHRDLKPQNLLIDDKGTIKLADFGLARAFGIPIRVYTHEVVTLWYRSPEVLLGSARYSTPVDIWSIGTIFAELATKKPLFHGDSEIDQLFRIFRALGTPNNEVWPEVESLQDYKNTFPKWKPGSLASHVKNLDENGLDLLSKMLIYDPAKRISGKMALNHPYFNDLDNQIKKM
Chain of Cyclin-dependent kinase 1/cyclin B1 (Homo sapiens) (P14635 whole entry, looked up, canonical isoform): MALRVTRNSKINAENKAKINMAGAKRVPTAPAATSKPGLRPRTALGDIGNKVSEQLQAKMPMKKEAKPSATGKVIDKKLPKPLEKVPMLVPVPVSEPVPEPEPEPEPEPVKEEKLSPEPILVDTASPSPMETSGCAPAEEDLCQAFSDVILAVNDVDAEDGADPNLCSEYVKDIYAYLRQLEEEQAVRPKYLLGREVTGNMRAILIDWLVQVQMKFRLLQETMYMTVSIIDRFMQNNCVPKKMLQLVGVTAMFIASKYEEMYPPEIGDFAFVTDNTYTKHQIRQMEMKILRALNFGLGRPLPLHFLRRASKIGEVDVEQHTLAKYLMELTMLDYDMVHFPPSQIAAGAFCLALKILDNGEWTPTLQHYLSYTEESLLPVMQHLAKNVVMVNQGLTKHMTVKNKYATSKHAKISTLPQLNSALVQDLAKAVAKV

| Compound | inhibition [1] | inhibition [2] | inhibition [3] | inhibition [4] | inhibition [5] | inhibition [6] | inhibition [7] | inhibition [8] | inhibition [9] | inhibition [10] |
| --- | --- | --- | --- | --- | --- | --- | --- | --- | --- | --- |
| C[C@@]1(C(=O)Nc2ccc(F)nc2)CCCN1c1nc(Nc2cc(C3CC3)n[nH]2)c2cccn2n1 | 0.77% | -1.84% | 11.7% | 5.5% | -6.93% | – | – | – | – | – |
| C[C@]1(O)C[C@@H](c2nc(-c3ccc4ccc(-c5ccccc5)nc4c3)c3c(N)nccn32)C1 | – | – | – | – | – | -4.38% | 4.92% | -4.68% | 15.8% | -8.77% |
